This passage reports IC50 results from patent US7501430B2 (ArQule, Inc., priority 2006, dated 2009).

Molecules are shown by their SMILES. Like-named read-outs stand apart in the source and are kept apart here. A value given as a limit tells only on which side of the number the result lay.

In the assay the target is T1, mutant B-RAF (Homo sapiens, UniProt P15056, V600E).
T1 construct: purchased Upstate (Charlottesville, Va.)
In words: RAF biochemical assay (MEK-1 phosphorylation, anti-phospho MEK1/2 detection). The essentials:
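Detection is by ELISA: after a 30 min room-temperature reaction, plate-captured GST-MEK-1 is probed with anti-phospho MEK1/2, then an AP-tagged secondary antibody with fluorescent Attophos read-out.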

Setting [1] is: read-out: Mutant B-RAF IC50 (uM) or % inhibition.

T1 sequence (P15056 whole entry V600E): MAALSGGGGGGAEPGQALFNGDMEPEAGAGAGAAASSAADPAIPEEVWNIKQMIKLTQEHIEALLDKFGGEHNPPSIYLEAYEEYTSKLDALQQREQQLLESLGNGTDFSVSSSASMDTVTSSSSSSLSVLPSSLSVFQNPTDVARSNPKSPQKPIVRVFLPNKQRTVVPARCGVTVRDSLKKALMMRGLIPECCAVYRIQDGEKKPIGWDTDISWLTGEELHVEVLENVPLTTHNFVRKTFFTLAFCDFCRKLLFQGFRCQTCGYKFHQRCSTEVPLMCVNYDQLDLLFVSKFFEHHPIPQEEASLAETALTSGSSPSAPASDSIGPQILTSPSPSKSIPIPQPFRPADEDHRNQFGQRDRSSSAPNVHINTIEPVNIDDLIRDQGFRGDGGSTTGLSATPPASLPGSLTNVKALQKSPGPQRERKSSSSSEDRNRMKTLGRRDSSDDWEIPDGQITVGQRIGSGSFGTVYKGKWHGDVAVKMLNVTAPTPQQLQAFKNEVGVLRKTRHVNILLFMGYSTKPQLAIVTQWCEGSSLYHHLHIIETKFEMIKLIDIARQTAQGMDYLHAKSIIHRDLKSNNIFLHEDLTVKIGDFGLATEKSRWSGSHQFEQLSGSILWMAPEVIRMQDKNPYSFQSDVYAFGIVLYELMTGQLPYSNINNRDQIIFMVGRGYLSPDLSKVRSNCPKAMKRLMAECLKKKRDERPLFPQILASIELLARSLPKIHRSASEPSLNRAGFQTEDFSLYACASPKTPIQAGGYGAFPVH

`O=Cc1cccc(-c2nc3sccn3c2-c2ccnc(N[C@@H]3CCCN(S(=O)(=O)c4ccc(Cl)cc4)C3)n2)c1` [Example 390, 3-{5-[2-({(3R)-1-[(4-chlorophenyl)sulfonyl]piperidin-3-yl}amino)pyrimidin-4-yl]imidazo[2,1-b][1,3]thiazol-6-yl}benzaldehyde]: the half-maximal inhibitory concentration (IC50) (read-out: Mutant B-RAF IC50) was 0.28 µM.
Turning to `O=S(=O)(Cc1ccccc1)N1CCC[C@@H](Nc2nccc(-c3c(-c4cccc(O)c4)nc4occn34)n2)C1` [Example 391, 3-[5-(2-{[(3R)-1-(benzylsulfonyl)piperidin-3-yl]amino}pyrimidin-4-yl)imidazo[2,1-b][1,3]oxazol-6-yl]phenol], the IC50 (read-out: Mutant B-RAF IC50) is above 3 µM.
On the same count and under the same terms, to `O=S(=O)(c1ccc(Cl)cc1)N1CCC[C@@H](Nc2nccc(-c3c(-c4ccc(/C=N/O)cc4)nc4sccn34)n2)C1` [Example 392, 4-{5-[2-({(3R)-1-[(4-chlorophenyl)sulfonyl]piperidin-3-yl}amino)pyrimidin-4-yl]imidazo[2,1-b][1,3]thiazol-6-yl}benzaldehyde oxime] belongs 0.698 µM.
As to `CCCS(=O)(=O)N1CCC[C@@H](Nc2nccc(-c3c(-c4cccc(O)c4)nc4occn34)n2)C1` [Example 393, 3-[5-(2-{[(3R)-1-(propylsulfonyl)piperidin-3-yl]amino}pyrimidin-4-yl)imidazo[2,1-b][1,3]oxazol-6-yl]phenol], where the note is “read-out: Mutant B-RAF IC50”, the IC50 amounted to 0.33 µM.
On the same count and under the same terms, to `COC(=O)N1CCC(Nc2nccc(-c3c(-c4cccc(O)c4)nc4sccn34)n2)CC1` [Example 394, methyl 4-({4-[6-(3-hydroxyphenyl)imidazo[2,1-b][1,3]thiazol-5-yl]pyrimidin-2-yl}amino)piperidine-1-carboxylate] belongs above 3 µM.
The same measure, in the same setting: for `O=S(=O)(c1ccc(Cl)cc1)N1CCC[C@@H](Nc2nccc(-c3c(-c4cccc(/C=N\O)c4)nc4sccn34)n2)C1` [Example 395, 3-{5-[2-({(3R)-1-[(4-chlorophenyl)sulfonyl]piperidin-3-yl}amino)pyrimidin-4-yl]imidazo[2,1-b][1,3]thiazol-6-yl}benzaldehyde oxime] the value was 0.018 µM; for `O=S(=O)(c1ccc(Cl)cc1)N1CCC[C@@H](Nc2nccc(-c3c(-c4cccc(CO)c4)nc4sccn34)n2)C1` [Example 396, (3-{5-[2-({(3R)-1-[(4-chlorophenyl)sulfonyl]piperidin-3-yl}amino)pyrimidin-4-yl]imidazo[2,1-b][1,3]thiazol-6-yl}phenyl)methanol], 1.6 µM.
On to `O=S(=O)(C1CC1)N1CCC[C@@H](Nc2nccc(-c3c(-c4cccc(O)c4)nc4occn34)n2)C1` [Example 397, 3-[5-(2-{[(3R)-1-(cyclopropylsulfonyl)piperidin-3-yl]amino}pyrimidin-4-yl)imidazo[2,1-b][1,3]oxazol-6-yl]phenol], for which the 50% inhibitory concentration (IC50) under setting [1] was determined as 2.3 µM.
In the case of `O=S(=O)(c1ccccc1)N1CCC[C@@H](Nc2nccc(-c3c(-c4cccc(O)c4)nc4occn34)n2)C1` [Example 398, 3-[5-(2-{[(3R)-1-(phenylsulfonyl)piperidin-3-yl]amino}pyrimidin-4-yl)imidazo[2,1-b][1,3]oxazol-6-yl]phenol], the IC50 under setting [1] turned out to be 0.042 µM.
On the same count and under the same terms, to `O=S(=O)(c1ccsc1)N1CCC[C@@H](Nc2nccc(-c3c(-c4cccc(O)c4)nc4occn34)n2)C1` [Example 399, 3-[5-(2-{[(3R)-1-(3-thienylsulfonyl)piperidin-3-yl]amino}pyrimidin-4-yl)imidazo[2,1-b][1,3]oxazol-6-yl]phenol] belongs above 3 µM; to `CC(=O)c1ccc(-c2nc3sccn3c2-c2ccnc(N[C@@H]3CCCN(S(=O)(=O)c4ccc(Cl)cc4)C3)n2)cc1` [Example 400, 1-(4-{5-[2-({(3R)-1-[(4-chlorophenyl)sulfonyl]piperidin-3-yl}amino)pyrimidin-4-yl]imidazo[2,1-b][1,3]thiazol-6-yl}phenyl)ethanone], 1.3 µM.
